Measured values: ChEMBL document CHEMBL4680187, “Optimization of EphA2 antagonists based on a lithocholic acid core led to the identification of UniPR505, a new 3α-carbamoyloxy derivative with antiangiogenetic properties” (Eur J Med Chem, 2020)
Active and inactive are the calls of the source. No cut-off for these calls is given here.

Columns and labels:
Ephrin type-A receptor 2 = Ephrin type-A receptor 2 (Mus musculus, UniProt Q03145); test: Displacement of biotinylated ephrin-A1-Fc from recombinant mouse c-terminal His6-tagged EphA2 Fc (Ala22 to Ala535 residues) preincubated for 1 hr followed by ephrin-A1-FC addition and measured after 4 hrs by ELISA
Ephrin type-A receptor 2, sequence (Q03145 whole entry): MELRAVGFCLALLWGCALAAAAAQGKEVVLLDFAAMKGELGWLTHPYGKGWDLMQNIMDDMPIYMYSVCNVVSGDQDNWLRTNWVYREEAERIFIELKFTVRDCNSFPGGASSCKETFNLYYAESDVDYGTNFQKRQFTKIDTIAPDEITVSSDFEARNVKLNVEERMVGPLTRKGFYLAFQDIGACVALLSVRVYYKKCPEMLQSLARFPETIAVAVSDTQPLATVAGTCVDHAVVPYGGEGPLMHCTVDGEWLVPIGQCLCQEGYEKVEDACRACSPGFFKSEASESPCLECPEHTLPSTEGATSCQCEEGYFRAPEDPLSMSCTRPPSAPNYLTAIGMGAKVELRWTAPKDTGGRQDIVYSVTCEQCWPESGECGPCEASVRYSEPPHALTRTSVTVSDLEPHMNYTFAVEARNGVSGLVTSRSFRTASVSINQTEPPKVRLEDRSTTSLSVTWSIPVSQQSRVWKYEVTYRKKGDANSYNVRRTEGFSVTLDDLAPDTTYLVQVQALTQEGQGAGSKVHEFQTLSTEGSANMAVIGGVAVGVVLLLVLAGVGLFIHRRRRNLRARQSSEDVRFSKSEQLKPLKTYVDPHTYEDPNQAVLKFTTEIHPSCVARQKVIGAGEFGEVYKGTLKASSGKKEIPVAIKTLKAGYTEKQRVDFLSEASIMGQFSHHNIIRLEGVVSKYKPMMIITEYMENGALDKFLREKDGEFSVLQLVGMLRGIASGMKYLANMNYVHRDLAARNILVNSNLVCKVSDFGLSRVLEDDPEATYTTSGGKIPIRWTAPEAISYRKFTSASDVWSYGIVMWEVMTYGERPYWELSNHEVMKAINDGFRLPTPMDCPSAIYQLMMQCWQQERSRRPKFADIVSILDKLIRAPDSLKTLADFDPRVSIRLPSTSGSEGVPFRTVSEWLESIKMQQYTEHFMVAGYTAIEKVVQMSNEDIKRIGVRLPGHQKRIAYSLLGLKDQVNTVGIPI

PC-3 = test: Cytotoxicity against human PC3 cells after 2 hrs by LDH assay; type: cell-based; conditions: pc-3, 2 h
Chorioallantoic membrane = test: Antiangiogenic activity in Leghorn chicken fertilized egg chorioallantoic membrane assessed as reduction in unstimulated neovascularization at 10 uM measured after 3 days by CAM assay; type: functional, tissue-based; conditions: Gallus gallus, time 3.0 day

SMILES | IC50 (Ephrin type-A receptor 2) [µM] | Activity (PC-3) | Activity (Chorioallantoic membrane)
C[C@H](CCC(=O)O)[C@H]1CC[C@H]2[C@@H]3CC[C@@H]4C[C@@H](OC(N)=O)CC[C@]4(C)[C@H]3CC[C@]12C | 9.1 | – | –
C[C@H](CCC(=O)O)[C@H]1CC[C@H]2[C@@H]3CC[C@@H]4C[C@H](OC(N)=O)CC[C@]4(C)[C@H]3CC[C@]12C | 17 | – | –
CCCCCCCCNC(=O)O[C@@H]1CC[C@@]2(C)[C@H](CC[C@@H]3[C@@H]2CC[C@]2(C)[C@@H]([C@H](C)CCC(=O)N[C@H](CC(=O)O)Cc4c[nH]c5ccccc45)CC[C@@H]32)C1 | 15 | – | –
C[C@H](CCC(=O)N[C@H](CC(=O)O)Cc1c[nH]c2ccccc12)[C@H]1CC[C@H]2[C@@H]3CC[C@@H]4C[C@H](OC(N)=O)CC[C@]4(C)[C@H]3CC[C@]12C | 1.2 | Non-Toxic | inactive
CCCCNC(=O)O[C@@H]1CC[C@@]2(C)[C@H](CC[C@@H]3[C@@H]2CC[C@]2(C)[C@@H]([C@H](C)CCC(=O)O)CC[C@@H]32)C1 | 3.7 | – | –
CCCCCCNC(=O)O[C@@H]1CC[C@@]2(C)[C@H](CC[C@@H]3[C@@H]2CC[C@]2(C)[C@@H]([C@H](C)CCC(=O)O)CC[C@@H]32)C1 | 3.3 | – | –
C[C@H](CCC(=O)N[C@H](CC(=O)O)Cc1c[nH]c2ccccc12)[C@H]1CC[C@H]2[C@@H]3CC[C@@H]4C[C@H](OC(=O)Nc5ccccc5)CC[C@]4(C)[C@H]3CC[C@]12C | 5.5 | – | –
CCCCNC(=O)O[C@@H]1CC[C@@]2(C)[C@H](CC[C@@H]3[C@@H]2CC[C@]2(C)[C@@H]([C@H](C)CCC(=O)N[C@H](CC(=O)O)Cc4c[nH]c5ccccc45)CC[C@@H]32)C1 | 1.1 | Non-Toxic | –
CCNC(=O)O[C@@H]1CC[C@@]2(C)[C@H](CC[C@@H]3[C@@H]2CC[C@]2(C)[C@@H]([C@H](C)CCC(=O)O)CC[C@@H]32)C1 | 30 | – | –
C[C@H](CCC(=O)O)[C@H]1CC[C@H]2[C@@H]3CC[C@@H]4C[C@H](OC(=O)NC5CCCCC5)CC[C@]4(C)[C@H]3CC[C@]12C | 2.7 | – | –
C[C@H](CCC(=O)N[C@H](CC(=O)O)Cc1c[nH]c2ccccc12)[C@H]1CC[C@H]2[C@@H]3CC[C@@H]4C[C@@H](OC(N)=O)CC[C@]4(C)[C@H]3CC[C@]12C | 5.2 | – | –
C[C@H](CCC(=O)O)[C@H]1CC[C@H]2[C@@H]3CC[C@@H]4C[C@H](OC(=O)Nc5ccccc5)CC[C@]4(C)[C@H]3CC[C@]12C | 38 | – | –
CCCCCCCCNC(=O)O[C@@H]1CC[C@@]2(C)[C@H](CC[C@@H]3[C@@H]2CC[C@]2(C)[C@@H]([C@H](C)CCC(=O)O)CC[C@@H]32)C1 | 4.5 | – | –
CC(C)NC(=O)O[C@@H]1CC[C@@]2(C)[C@H](CC[C@@H]3[C@@H]2CC[C@]2(C)[C@@H]([C@H](C)CCC(=O)O)CC[C@@H]32)C1 | 12 | – | –
CC(C)NC(=O)O[C@@H]1CC[C@@]2(C)[C@H](CC[C@@H]3[C@@H]2CC[C@]2(C)[C@@H]([C@H](C)CCC(=O)N[C@H](CC(=O)O)Cc4c[nH]c5ccccc45)CC[C@@H]32)C1 | 7.1 | – | –
C[C@H](CCC(=O)N[C@H](CC(=O)O)Cc1c[nH]c2ccccc12)[C@H]1CC[C@H]2[C@@H]3CC[C@@H]4C[C@H](OC(=O)NC5CCCCC5)CC[C@]4(C)[C@H]3CC[C@]12C | 1.2 | Non-Toxic | –
CCCCCCNC(=O)O[C@@H]1CC[C@@]2(C)[C@H](CC[C@@H]3[C@@H]2CC[C@]2(C)[C@@H]([C@H](C)CCC(=O)N[C@H](CC(=O)O)Cc4c[nH]c5ccccc45)CC[C@@H]32)C1 | 1.5 | Non-Toxic | –
